# Data: patent US20260284189A1, “TREATMENT OF NON-SMALL CELL LUNG CANCER” (ASTRAZENECA AB, priority 2023, published 2026)
# What was measured:
# [1] = system: resectable non-small cell lung cancer (R-NSCLC); experiment: AEGEAN phase III: event-free survival (EFS) by blinded independent central review; format: in vivo, human
# Excerpt: As used herein, the terms “event-free survival” or “EFS” refer to the time from randomization to the first of the following: a) local or distant recurrence as determined by BICR using RECIST 1.1 assessments; b) death due to any cause (event date is the date of death); c) PD that precludes surgery (event date is the date of this determination) or PD discovered and reported by the Investigator upon attempting surgery that prevents completion of surgery (event date is the date of the first attempt at surgery). Event-free survival can be analyzed using the log-rank test based on blinded independent central review (BICR) assessment using RECIST v1.1 and pathology review stratified by disease stage (Stage II versus Stage III) and by PD-L1 expression status (<1% versus >1%) on the mITT. The p-value can be obtained from the stratified log-rank test using the Efron (Hertz-Picciotto and Rockhill “Validity and efficiency of approximation methods for tied survival times in Cox regression.” Biometrics 1997; 53(3):1151-6.) approach for handling ties.
# The AEGEAN (NCT03800134) study described herein is a phase III, double-blind, placebo-controlled, multi-center international study of assessed perioperative (i.e. neoadjuvant and adjuvant) durvalumab plus neoadjuvant chemotherapy for the treatment of patients with resectable stage II and stage III non-small cell lung cancer (R-NSCLC).
# The study enrolled approximately 1300 patients and randomized approximately 800 eligible patients. Eligible patients had newly diagnosed, previously untreated, histologically or cytologically documented, resectable NSCLC (stage IIA to select [N2] stage IIIB according to the American Joint Committee on Cancer [AJCC] Cancer Staging Manual, version 8). Patients were randomized in a 1:1 ratio to receive either durvalumab plus a platinum-based chemotherapy before surgery followed by durvalumab post-surgery (Arm 1; a platinum-based chemotherapy plus durvalumab intravenously every three weeks (four cycles) before surgery, followed by durvalumab intravenously every four weeks (12 cycles)) or placebo plus a platinum-based chemotherapy before surgery followed by placebo post-surgery (Arm 2; a platinum-based chemotherapy plus placebo intravenously every three weeks (four cycles) before surgery, followed by placebo intravenously every four weeks (12 cycles)). Patients were also stratified by disease stage (Stage II versus Stage III) and by PD-L1 expression status (<1% versus ≥1%).
# The two primary efficacy endpoints in this study were event-free survival (EFS; per blinded independent central review [BICR]) and pathological complete response (pCR; evaluated centrally). […]
# Comparisons between the study arms were analyzed using stratified log-rank tests. […]
# [2] = system: PD-L1-mediated suppression of human T-cell activation; conditions: in vitro; cited from earlier work
# [3] = system: xenograft model; conditions: via a T-cell dependent mechanism; cited from earlier work
# [4] = mITT subgroup, durvalumab versus placebo, unstratified Cox model
substance,measurement,setting,value
Durvalumab: antibody that selectively binds PD-L1 and blocks binding of PD-L1 to PD-1 and CD80; arm given with platinum-based chemotherapy before surgery,"EFS stratified hazard ratio, durvalumab arm versus placebo arm","[1]; mITT N=740, BICR, first interim analysis, 31.9% maturity, data cut-off Nov. 10, 2022",0.68
same,"EFS HR, planned neoadjuvant platinum agent carboplatin",[1]; [4],0.73
same,"EFS HR, planned neoadjuvant platinum agent cisplatin",[1]; [4],0.59
same,median EFS,"[1]; mITT, BICR, first interim analysis, 31.9% maturity",not reached
same,PD-L1-mediated suppression of human T-cell activation,[2],can relieve PD-L1-mediated suppression of human T-cell activation in vitro
same,tumor growth in a xenograft model,[3],inhibits tumor growth in a xenograft model
